From patent publication US7563946B2, “Plant development regulating gene and its uses” (CropDesign, N.V., priority 2000, dated 2009)

Assays:
[1] = system: DR5::GUS; assay: Auxin sensitivity test, DR5::GUS expression in wildtype seedlings; type: in vivo, Arabidopsis thaliana; settings: 3 days on medium
Source text: (§1) However, new methods to detect auxin responses have emerged, for example with synthetic auxin responsive promoter elements binding ARF transcription factors, such as DR5::GUS (Ulmasov et al., 1997). Since there is also a resemblance of the hbt early embryo phenotype to axr6, bdl and mp mutants (Hardtke and Berleth, 1998; Hamann et al., 1999; Hobbie et al 2000), we used the DR5::GUS construct to re-investigated auxin responses in hbt seedlings. In wildtype seedling roots there is a maximum of DR5::GUS staining in the upper part of the columella (FIG. 17A). This peak is absent in hbt seedlings (FIG. 17F) where no GUS staining is visible. Since the specification of the columella cells is defective in hbt seedlings, we wanted to know whether hbt mutant cells are capable of sensing auxin. Therefore, hbt seedlings were incubated for 3 days on media containing different concentrations of the synthetic auxin 2,4 D, and DR5::GUS expression was analysed. […] It is therefore possible that the HBT gene has a role in the perception of auxin levels.
(§2) DR5::GUS expression in wt roots (A-E) and in hbt seedlings […]. Three days post germination seedlings were transferred to 0.5 GM plates (A and F) and 0.5 GM plates containing 10^−9 M 2,4 D (B and G), 10^−8 M 2,4 D (C and H), 10^−7 M 2,4 D (D and I) and 10^−6 M 2,4 D (E and J) and incubated for another three days. Mutants are shown at 10× magnification of the wildtype seedling.
(§3) DR5::GUS constructs was used (Ulmasov et al., 1997b). Seedlings were germinated on 0.5 GM medium as described, 3 dpg transferred to fresh 0.5 GM plates containing different concentrations of 2,4 D or IAA (5.10^−9 M until 5.10^−6 M) (see FIG. 17) and incubated for an additional 3 days. After that the b-glucuronidase was visualized as described (Willemsen et al., 1998).

[2] = system: DR5::GUS; assay: Auxin sensitivity test, DR5::GUS expression in hbt mutant seedlings; type: in vivo, Arabidopsis thaliana
Source text: as §1, §2, §3

[3] = system: hbt seedlings; settings: hbt seedlings treated with ethylene

O=C(O)COc1ccc(Cl)cc1Cl [2,4 D]
DR5::GUS expression in wildtype hypocotyls ([1]; 5.10^-6 M): never observed any ectopic DR5 expression | DR5::GUS expression in wildtype root ([1]; 5.10^-7 M): quite intense and throughout the entire root | DR5::GUS expression in wildtype roots ([1]; 5.10^-9 M until 5.10^-8 M): ectopic expression of the DR5::GUS promoter in the meristem of wildtype roots | DR5::GUS expression in hbt hypocotyls ([2]; 5.10^-6 M, 3 days on medium): strong DR5 expression | DR5::GUS expression in hbt root pole ([2]; 5.10^-7 M, 3 days on medium): a DR5 peak in the root pole of hbt | DR5::GUS staining in hbt seedlings ([2]; 5.10^-9 M until 5.10^-8 M, 3 days on medium): no staining observed | DR5::GUS expression in hbt embryos compared to wildtype ([2]; embryos, after induction): no differences compared to wildtype | Auxin sensitivity of hbt seedlings (synthetic auxin response element) ([2]; hbt seedlings versus wildtype): altered auxin sensitivity

C=C [ethylene]
Re-specification of epidermal cells on the hypocotyl [3]: a large number of ectopic outgrowths was induced
